Laboratory results as given in ChEMBL document CHEMBL3045790, “QSAR study of 5-arylidene-2,4-thiazolidinediones as aldose reductase inhibitors” (Med Chem Res, 2008).

Each compound was assayed against Aldo-keto reductase family 1 member B1 (Homo sapiens, UniProt P15121) (assay: Inhibition of aldose reductase (unknown origin)).

| Structure (SMILES) | IC50 [µM] |
| --- | --- |
| O=C(O)CN1C(=O)S/C(=C\c2cccc(Oc3ccccc3)c2)C1=O | 10.7 |
| O=C(O)/C=C/CN1C(=O)S/C(=C/c2ccc(O)cc2)C1=O | 1.19 |
| Nc1cccc(/C=C2/SC(=O)NC2=O)c1 | 6.14 |
| COC(=O)CN1C(=O)S/C(=C/c2ccc(O)cc2)C1=O | 39.1 |
| COC(=O)CN1C(=O)S/C(=C/c2cccc(N)c2)C1=O | 1.32 |
| O=C1NC(=O)/C(=C/c2cccc3ccccc23)S1 | 8.95 |
| O=C1NC(=O)/C(=C/c2ccc(O)cc2)S1 | 20.2 |
| O=C(O)CN1C(=O)S/C(=C/c2ccc([N+](=O)[O-])cc2)C1=O | 0.82 |
| O=C(O)CN1C(=O)S/C(=C/c2cccc3ccccc23)C1=O | 6.18 |
| O=C(O)CN1C(=O)S/C(=C\c2ccc(OCc3ccccc3)cc2)C1=O | 10.7 |
| O=C(O)CN1C(=O)S/C(=C/c2cccc(O)c2)C1=O | 4.17 |

Compounds with a lower IC50, results first:

| IC50 [µM] | Structure (SMILES) |
| --- | --- |
| 0.26 | COC(=O)CN1C(=O)S/C(=C/c2cccc(Oc3ccccc3)c2)C1=O |
| 0.28 | O=C1NC(=O)/C(=C/c2cccc(Oc3ccccc3)c2)S1 |
| 0.13 | O=C(O)CN1C(=O)S/C(=C/c2cccc([N+](=O)[O-])c2)C1=O |
| 0.17 | O=C(O)CN1C(=O)S/C(=C\c2ccc(Oc3ccccc3)cc2)C1=O |
| 0.661 | O=C(O)CN1C(=O)S/C(=C/c2ccc(-c3ccccc3)cc2)C1=O |
| 0.15 | O=C1NC(=O)/C(=C\c2cccc(O)c2)S1 |
| 0.49 | O=C(O)CN1C(=O)S/C(=C/c2ccc(O)cc2)C1=O |
